Tested on: human cord blood-derived CD34^+ cells
Assay: Expansion of CD34^+ cells from human cord blood-derived CD34^+ cells (7-day liquid culture with SCF, flow cytometry)
Assay type: cell-based
Details: 168 h, based on the number of CD34^+ cells in the absence of compound, 100 ng/mL SCF, 7 days, read-out: Expansion efficiency; for fold induction at 1 µg/mL: 1 μg/mL compound; for fold induction at 0.3 µg/mL: 0.3 μg/mL compound
Description: Commercially available human cord blood-derived CD34^+ cells (Cambrex Bio Science Walkersville) were plated on a 12-well plate (Corning) (from 5000 to 10000 cells/1 mL/well). As the culture medium, StemSpan SFEM (Stemcell Technologies) containing 100 ng/mL SCF (R&D Systems) was used, and Compounds Nos. 1 to 16 dissolved in dimethyl sulfoxide were added in an amount of 0.1% (v/v) to a final concentration of 0.3 or 1 μg/mL.
After the cells were incubated in liquid culture at 37° C. for 7 days in a CO2 incubator (in an atmosphere containing 5 vol % CO2), the total number of cells was counted by trypan blue assay (Invitrogen) or Flow-Count™ fluorosphere assay (Beckman Coulter). The number of CD34^+ cells was calculated as follows. After the incubation, the cells in the liquid culture was stained with a CD34 antibody (PE, Becton, Dickinson and Company). The stained cells were analyzed with a flow cytometer (Beckman Coulter) to determined the proportion of CD34^+ cells, which was multiplied by the total number of cells to calculate the number of CD34^+ cells.
The expansion efficiencies in the presence of 0.3 μg/mL or 1 μg/mL of compounds based on the number of CD34^+ cells in the absence of them are shown in Table 3 on a scale of A for expansion efficiencies of 3 or greater, B for expansion efficiencies of at least 2 and less than 3, and C for expansion efficiencies of at least 1.5 and less than 2.

Compound | fold induction at 1 µg/mL | fold induction at 0.3 µg/mL
COc1ccc(-c2scc(/C(C)=N/NC(=S)N3CCC(C(=O)O)CC3)c2O)cc1 [compound 6] | ≥ 3 | 
C/C(=N\NC(=S)N1CCC(C(=O)NCc2ccncc2)CC1)c1csc(-c2ccc(Br)cc2)c1O [compound 14] |  | 1.5 to 2
COC(=O)C1CCN(C(=S)N/N=C(\C)c2csc(-c3ccc(OC)cc3)c2O)CC1 [compound 5] | 1.5 to 2 | 
C/C(=N\NC(=S)N1CCC(C(=O)O)CC1)c1nn(C)c(-c2ccc(C(F)(F)F)cc2)c1O [compound 3] | 1.5 to 2 | 
C/C(=N\NC(=S)N1CCC(C(=O)NCC(=O)O)CC1)c1csc(-c2ccc(Br)cc2)c1O [compound 16] |  | 2 to 3
C/C(=N\NC(=S)N1CCC(C(=O)O)CC1)c1csc(-c2ccc(C(F)(F)F)cc2)c1O [compound 2] | 2 to 3 | 
C/C(=N\NC(=S)N1CCC(C(=O)O)CC1)c1csc(-c2ccc(Br)cc2)c1O [compound 8] | ≥ 3 | 
C/C(=N\NC(=S)N1CCC(C(=O)O)CC1)c1csc(-c2ccc(C(C)(C)C)cc2)c1O [compound 7] | ≥ 3 | 
COC(=O)C1CCN(C(=S)N/N=C(\C)c2nn(C)c(-c3ccc(Cl)c(Cl)c3)c2O)CC1 [compound 4] | 1.5 to 2 | 
C/C(=N\NC(=S)N1CCC(C(=O)O)CC1)c1csc(-c2cccc(Cl)c2)c1O [compound 12] | 2 to 3 | 
C/C(=N\NC(=S)N1CCC(C(=O)O)CC1)c1csc(-c2ccc(Cl)c(Cl)c2)c1O [compound 1] | 2 to 3 | 
C/C(=N\NC(=S)N1CCC(C(=O)O)CC1)c1csc(-c2ccc(C)c(C)c2)c1O [compound 10] | ≥ 3 | 
CCCNC(=O)C1CCN(C(=S)N/N=C(\C)c2nn(C)c(-c3ccc(C(F)(F)F)cc3)c2O)CC1 [compound 9] | 2 to 3 | 
C/C(=N\NC(=S)N1CCC(C(=O)O)CC1)c1csc(-c2ccc(OC(F)(F)F)cc2)c1O [compound 11] | ≥ 3 | 
C/C(=N\NC(=S)N1CCC(C(=O)O)CC1)c1csc(-c2ccc(Cl)cc2)c1O [compound 13] | ≥ 3 | 

Source: patent US20100310535A1, “METHOD FOR EXPANDING HEMATOPOIETIC STEM CELLS USING HETEROCYCLIC COMPOUND” (Nissan Chemical Industries, Ltd., priority 2007, published 2010)
